Assay results published in PMC7407272, “Induction of Lysosome Membrane Permeabilization as a Therapeutic Strategy to Target Pancreatic Cancer Stem Cells” (Cancers, 2020).

Tests used:
PDAC4 cultures = assay: Sphere formation assay; format: cell-based, human; details: 0.1 µg/mL GEM or Cpd 1 at 1.25 or 2.5 µM
From the text: (§1) Pancreatic CSC spheres were generated as previously described in ultra-low attachment plates (Corning) using CSC media: serum-free DMEM/F12 medium (1:1; #21331-020; Gibco, Waltham, MA, USA), supplemented with Pen/Strep (1:100; #1500-063; Gibco, Waltham, MA, USA), Fungizone (1:250; #15290-018; Gibco), L-Glutamine (1:100; #25030-024; Gibco, Waltham, MA, USA), B-27 (1:50; #17504-044; Gibco, Waltham, MA, USA) and basic fibroblast growth factor (FGF-b) (1:5000; Gibco, Waltham, MA, USA). All cell culture was carried out at 37 °C in a 5% CO2 humidified incubator. To quantify spheres of > 40 μm, 1 mL of sample volume was analyzed with a CASY® Cell Counter (Roche Applied Sciences, Mannheim, Germany). The CASY® Cell Counter measuring principle is based on a capillary particle counter with pulse area analysis, that permits the determination of cell count, cell concentration, cell volume (peak), and average cell diameter, specifically diameters of 40–80 μm, 80–120 μm and >120 μm.

PDAC2 cultures = assay: Sphere formation assay; format: cell-based, human; details: 0.1 µg/mL GEM or Cpd 1 at 1.25 or 2.5 µM
From the text: as §1

SLK = biological target: T1, SLK (Homo sapiens, UniProt Q9H2G2); assay: KINOMEscan; format: binding; details: read-out: % Ctrl
T1 construct: purchased DiscoveRx KINOMEscan

BRSK2 = biological target: T2, BRSK2 (Homo sapiens, UniProt Q8IWQ3); assay: KINOMEscan; format: binding; details: read-out: % Ctrl
T2 construct: purchased DiscoveRx KINOMEscan

MEK4 = biological target: T3, MEK4 (Homo sapiens, UniProt P45985); assay: KINOMEscan; format: binding; details: read-out: % Ctrl
T3 construct: purchased DiscoveRx KINOMEscan

PIK3CA(H1047Y) = biological target: T4, PIK3CA(H1047Y) (Homo sapiens, UniProt P42336, H1047Y); assay: KINOMEscan; format: binding; details: read-out: % Ctrl
T4 construct: purchased DiscoveRx KINOMEscan

BTK = biological target: T5, BTK (Homo sapiens, UniProt Q06187); assay: KINOMEscan; format: binding; details: read-out: % Ctrl
T5 construct: purchased DiscoveRx KINOMEscan

ROCK2 = biological target: T6, ROCK2 (Homo sapiens, UniProt O75116); assay: KINOMEscan; format: binding; details: read-out: % Ctrl
T6 construct: purchased DiscoveRx KINOMEscan

RSK3(KD1-N-t.) = biological target: T7, RSK3(KD1-N-t.) (Homo sapiens, UniProt Q15349); assay: KINOMEscan; format: binding; details: read-out: % Ctrl
T7 construct: RSK3(KD1-N-t.); purchased DiscoveRx KINOMEscan

FLT3(K663Q) = biological target: T8, FLT3(K663Q) (Homo sapiens, UniProt P36888, K663Q); assay: KINOMEscan; format: binding; details: read-out: % Ctrl
T8 construct: purchased DiscoveRx KINOMEscan

PCTK1 = biological target: T9, PCTK1 (Homo sapiens, UniProt Q00536); assay: KINOMEscan; format: binding; details: read-out: % Ctrl
T9 construct: purchased DiscoveRx KINOMEscan

MAP4K3 = biological target: T10, MAP4K3 (Homo sapiens, UniProt Q8IVH8); assay: KINOMEscan; format: binding; details: read-out: % Ctrl
T10 construct: purchased DiscoveRx KINOMEscan

PIM3 = PIM3 (Homo sapiens, UniProt Q86V86); assay: KINOMEscan; format: binding; parameters: purchased DiscoveRx KINOMEscan; details: read-out: % Ctrl
MAPKAPK5 = biological target: T11, MAPKAPK5 (Homo sapiens, UniProt Q8IW41); assay: KINOMEscan; format: binding; details: read-out: % Ctrl
T11 construct: purchased DiscoveRx KINOMEscan

BLK = biological target: T12, BLK (Homo sapiens, UniProt P51451); assay: KINOMEscan; format: binding; details: read-out: % Ctrl
T12 construct: purchased DiscoveRx KINOMEscan

GRK2 = biological target: T13, GRK2 (Homo sapiens, UniProt P25098); assay: KINOMEscan; format: binding; details: read-out: % Ctrl
T13 construct: purchased DiscoveRx KINOMEscan

PIK3CA(E545K) = biological target: T14, PIK3CA(E545K) (Homo sapiens, UniProt P42336, E545K); assay: KINOMEscan; format: binding; details: read-out: % Ctrl
T14 construct: purchased DiscoveRx KINOMEscan

ACVR1 = biological target: T15, ACVR1 (Homo sapiens, UniProt Q04771); assay: KINOMEscan; format: binding; details: read-out: % Ctrl
T15 construct: purchased DiscoveRx KINOMEscan

PAK2 = biological target: T16, PAK2 (Homo sapiens, UniProt Q13177); assay: KINOMEscan; format: binding; details: read-out: % Ctrl
T16 construct: purchased DiscoveRx KINOMEscan

Pharmacokinetic study = format: in vivo; details: BALB/c mice
Method: Female BABL/c mice, 10 weeks old were used (n = 3 per time point). Compound 2 was formulated in 0.9% NaCl solution for both oral and intravenous (i.v.) injections. Plasma samples were collected following a single i.v. or oral administration of 8 mg/kg at 0.08, 0.16, 0.25, 0.5, 1, 4, 8 and 24 h. The extraction of Cpd 2 from plasma was achieved by solid phase extraction followed by high performance liquid chromatography/tandem mass spectrometry (Agilent 1100, Applied Biosystems API2000) analysis. The amount of inhibitor and the internal standard in each mouse plasma sample were quantified based on calibration curves generated using standards of known concentrations of compound. This assay method was sufficiently accurate for the quantification of Cpd 2 with a limit of detection (LOD) and a low limit of quantification (LLOQ) of 5 ng/mL. Pharmacokinetic parameters were estimated using WinNonlin Version 5.2 software (Pharsight Corp., Mountain View, CA, USA), by fitting both the experimental i.v and oral data to a bicompartimental model.

CDC2L2 = biological target: T17, CDC2L2 (Homo sapiens, UniProt Q9UQ88); assay: KINOMEscan; format: binding; details: read-out: % Ctrl
T17 construct: purchased DiscoveRx KINOMEscan

ZAP70 = biological target: T18, ZAP70 (Homo sapiens, UniProt P43403); assay: KINOMEscan; format: binding; details: read-out: % Ctrl
T18 construct: purchased DiscoveRx KINOMEscan

p38-gamma = biological target: T19, p38-gamma (Homo sapiens, UniProt P53778); assay: KINOMEscan; format: binding; details: read-out: % Ctrl
T19 construct: purchased DiscoveRx KINOMEscan

PRKCH = biological target: T20, PRKCH (Homo sapiens, UniProt P24723); assay: KINOMEscan; format: binding; details: read-out: % Ctrl
T20 construct: purchased DiscoveRx KINOMEscan

AXL = biological target: T21, AXL (Homo sapiens, UniProt P30530); assay: KINOMEscan; format: binding; details: read-out: % Ctrl
T21 construct: purchased DiscoveRx KINOMEscan

NEK11 = biological target: T22, NEK11 (Homo sapiens, UniProt Q8NG66); assay: KINOMEscan; format: binding; details: read-out: % Ctrl
T22 construct: purchased DiscoveRx KINOMEscan

PYK2 = biological target: T23, PYK2 (Homo sapiens, UniProt Q14289); assay: KINOMEscan; format: binding; details: read-out: % Ctrl
T23 construct: purchased DiscoveRx KINOMEscan

PDGFRA = biological target: T24, PDGFRA (Homo sapiens, UniProt P16234); assay: KINOMEscan; format: binding; details: read-out: % Ctrl
T24 construct: purchased DiscoveRx KINOMEscan

ZAK = biological target: T25, ZAK (Homo sapiens, UniProt Q9NYL2); assay: KINOMEscan; format: binding; details: read-out: % Ctrl
T25 construct: purchased DiscoveRx KINOMEscan

DYRK1B = biological target: T26, DYRK1B (Homo sapiens, UniProt Q9Y463); assay: KINOMEscan; format: binding; details: read-out: % Ctrl
T26 construct: purchased DiscoveRx KINOMEscan

T7 sequence (Q15349 1-388 limits assumed): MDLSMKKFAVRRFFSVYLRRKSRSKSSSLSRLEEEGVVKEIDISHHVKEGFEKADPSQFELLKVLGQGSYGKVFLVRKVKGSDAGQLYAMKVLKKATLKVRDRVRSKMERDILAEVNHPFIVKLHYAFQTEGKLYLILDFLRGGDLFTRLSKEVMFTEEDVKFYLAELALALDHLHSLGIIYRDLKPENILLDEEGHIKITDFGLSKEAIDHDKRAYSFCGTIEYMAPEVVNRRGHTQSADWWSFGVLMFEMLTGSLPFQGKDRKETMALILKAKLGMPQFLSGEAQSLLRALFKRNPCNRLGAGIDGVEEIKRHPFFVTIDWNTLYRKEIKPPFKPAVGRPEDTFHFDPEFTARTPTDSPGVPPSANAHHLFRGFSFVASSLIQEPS
T3 sequence (P45985 whole entry): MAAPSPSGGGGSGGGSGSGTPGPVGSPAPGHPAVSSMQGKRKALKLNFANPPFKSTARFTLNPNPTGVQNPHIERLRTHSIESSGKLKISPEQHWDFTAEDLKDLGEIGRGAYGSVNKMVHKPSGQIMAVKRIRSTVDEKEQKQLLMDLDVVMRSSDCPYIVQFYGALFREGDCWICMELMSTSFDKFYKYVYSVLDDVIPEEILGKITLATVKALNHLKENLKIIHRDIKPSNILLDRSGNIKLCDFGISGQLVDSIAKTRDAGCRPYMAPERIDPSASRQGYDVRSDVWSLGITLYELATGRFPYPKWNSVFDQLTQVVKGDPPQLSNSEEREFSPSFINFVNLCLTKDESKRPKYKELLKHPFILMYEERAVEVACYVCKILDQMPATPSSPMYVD
T4 sequence (P42336 whole entry H1047Y): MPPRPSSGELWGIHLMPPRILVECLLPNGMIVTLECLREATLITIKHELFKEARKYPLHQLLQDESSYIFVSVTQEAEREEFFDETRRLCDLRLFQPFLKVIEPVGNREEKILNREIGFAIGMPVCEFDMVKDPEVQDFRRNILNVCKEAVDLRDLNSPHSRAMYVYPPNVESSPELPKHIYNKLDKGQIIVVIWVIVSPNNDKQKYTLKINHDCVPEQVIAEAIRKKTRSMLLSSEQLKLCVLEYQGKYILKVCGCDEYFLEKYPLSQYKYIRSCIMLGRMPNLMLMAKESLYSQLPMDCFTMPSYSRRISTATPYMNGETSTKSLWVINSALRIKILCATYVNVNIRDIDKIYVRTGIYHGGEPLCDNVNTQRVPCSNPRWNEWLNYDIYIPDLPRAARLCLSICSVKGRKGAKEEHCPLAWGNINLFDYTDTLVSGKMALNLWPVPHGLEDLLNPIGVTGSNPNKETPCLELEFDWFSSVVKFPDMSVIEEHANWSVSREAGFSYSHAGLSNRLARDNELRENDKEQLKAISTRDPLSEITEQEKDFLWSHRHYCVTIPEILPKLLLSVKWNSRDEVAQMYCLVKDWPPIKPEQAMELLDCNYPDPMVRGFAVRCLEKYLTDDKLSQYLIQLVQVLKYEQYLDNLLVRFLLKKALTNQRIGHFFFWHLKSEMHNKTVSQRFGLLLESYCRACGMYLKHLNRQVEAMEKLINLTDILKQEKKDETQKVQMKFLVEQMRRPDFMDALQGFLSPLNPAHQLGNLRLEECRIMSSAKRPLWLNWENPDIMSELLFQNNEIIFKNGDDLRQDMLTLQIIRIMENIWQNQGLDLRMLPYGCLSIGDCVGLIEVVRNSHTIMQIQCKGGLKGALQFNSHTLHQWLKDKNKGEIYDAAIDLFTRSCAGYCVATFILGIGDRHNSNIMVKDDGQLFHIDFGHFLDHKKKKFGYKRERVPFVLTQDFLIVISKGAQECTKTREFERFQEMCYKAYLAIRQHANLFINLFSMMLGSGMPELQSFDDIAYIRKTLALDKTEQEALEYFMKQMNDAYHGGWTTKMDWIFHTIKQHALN
T6 sequence (O75116 whole entry): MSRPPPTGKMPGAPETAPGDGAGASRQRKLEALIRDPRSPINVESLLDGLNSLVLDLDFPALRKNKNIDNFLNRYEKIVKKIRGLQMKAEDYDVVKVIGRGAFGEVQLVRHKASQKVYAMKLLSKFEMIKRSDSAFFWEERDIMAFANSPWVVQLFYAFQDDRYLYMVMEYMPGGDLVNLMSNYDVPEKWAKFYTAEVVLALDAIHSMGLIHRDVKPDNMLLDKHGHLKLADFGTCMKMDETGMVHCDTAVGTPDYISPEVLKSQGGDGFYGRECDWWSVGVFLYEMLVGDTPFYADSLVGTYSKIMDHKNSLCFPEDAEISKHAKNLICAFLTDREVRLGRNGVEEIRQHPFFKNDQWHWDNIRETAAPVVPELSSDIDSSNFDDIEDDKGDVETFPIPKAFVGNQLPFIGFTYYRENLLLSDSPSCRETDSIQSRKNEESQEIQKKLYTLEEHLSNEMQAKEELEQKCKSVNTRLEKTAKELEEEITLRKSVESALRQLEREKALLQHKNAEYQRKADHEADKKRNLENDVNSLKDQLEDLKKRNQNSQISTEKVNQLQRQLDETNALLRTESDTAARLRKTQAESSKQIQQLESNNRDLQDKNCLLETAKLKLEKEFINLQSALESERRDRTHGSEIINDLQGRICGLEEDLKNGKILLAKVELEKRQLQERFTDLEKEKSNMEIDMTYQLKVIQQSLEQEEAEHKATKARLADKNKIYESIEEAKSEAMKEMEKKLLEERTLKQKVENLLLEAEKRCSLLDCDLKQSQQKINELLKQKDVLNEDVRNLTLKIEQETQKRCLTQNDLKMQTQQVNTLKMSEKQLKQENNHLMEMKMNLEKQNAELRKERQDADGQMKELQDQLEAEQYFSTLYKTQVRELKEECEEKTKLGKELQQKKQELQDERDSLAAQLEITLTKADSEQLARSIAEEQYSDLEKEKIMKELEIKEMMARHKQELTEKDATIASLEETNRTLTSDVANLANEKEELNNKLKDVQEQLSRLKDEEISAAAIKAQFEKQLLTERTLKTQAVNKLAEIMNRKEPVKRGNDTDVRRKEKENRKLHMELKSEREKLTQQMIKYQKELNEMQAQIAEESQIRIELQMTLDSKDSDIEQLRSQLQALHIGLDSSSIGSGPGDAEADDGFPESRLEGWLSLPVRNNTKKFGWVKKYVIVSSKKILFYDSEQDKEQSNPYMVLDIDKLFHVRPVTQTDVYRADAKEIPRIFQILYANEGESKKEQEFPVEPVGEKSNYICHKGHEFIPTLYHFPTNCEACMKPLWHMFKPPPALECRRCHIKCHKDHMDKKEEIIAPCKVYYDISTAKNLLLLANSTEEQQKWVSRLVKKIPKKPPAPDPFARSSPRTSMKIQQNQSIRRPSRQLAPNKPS
T22 sequence (Q8NG66 whole entry): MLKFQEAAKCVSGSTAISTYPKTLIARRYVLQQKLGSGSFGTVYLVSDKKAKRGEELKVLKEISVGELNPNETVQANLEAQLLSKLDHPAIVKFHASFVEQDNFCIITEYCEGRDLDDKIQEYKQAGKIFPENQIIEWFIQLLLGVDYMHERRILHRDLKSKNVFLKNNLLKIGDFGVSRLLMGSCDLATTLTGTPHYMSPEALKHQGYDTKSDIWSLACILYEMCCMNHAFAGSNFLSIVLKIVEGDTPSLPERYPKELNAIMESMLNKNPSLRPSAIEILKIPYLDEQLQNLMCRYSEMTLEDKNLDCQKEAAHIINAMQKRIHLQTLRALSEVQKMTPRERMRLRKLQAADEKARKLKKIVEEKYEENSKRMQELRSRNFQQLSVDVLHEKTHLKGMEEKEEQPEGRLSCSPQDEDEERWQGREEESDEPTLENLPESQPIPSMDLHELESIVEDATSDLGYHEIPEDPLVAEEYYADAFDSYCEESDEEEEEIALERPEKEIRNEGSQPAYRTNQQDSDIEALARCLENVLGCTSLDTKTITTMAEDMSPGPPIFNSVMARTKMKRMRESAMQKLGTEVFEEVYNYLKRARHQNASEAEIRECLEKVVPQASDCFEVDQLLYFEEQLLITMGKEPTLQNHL
T25 sequence (Q9NYL2 whole entry): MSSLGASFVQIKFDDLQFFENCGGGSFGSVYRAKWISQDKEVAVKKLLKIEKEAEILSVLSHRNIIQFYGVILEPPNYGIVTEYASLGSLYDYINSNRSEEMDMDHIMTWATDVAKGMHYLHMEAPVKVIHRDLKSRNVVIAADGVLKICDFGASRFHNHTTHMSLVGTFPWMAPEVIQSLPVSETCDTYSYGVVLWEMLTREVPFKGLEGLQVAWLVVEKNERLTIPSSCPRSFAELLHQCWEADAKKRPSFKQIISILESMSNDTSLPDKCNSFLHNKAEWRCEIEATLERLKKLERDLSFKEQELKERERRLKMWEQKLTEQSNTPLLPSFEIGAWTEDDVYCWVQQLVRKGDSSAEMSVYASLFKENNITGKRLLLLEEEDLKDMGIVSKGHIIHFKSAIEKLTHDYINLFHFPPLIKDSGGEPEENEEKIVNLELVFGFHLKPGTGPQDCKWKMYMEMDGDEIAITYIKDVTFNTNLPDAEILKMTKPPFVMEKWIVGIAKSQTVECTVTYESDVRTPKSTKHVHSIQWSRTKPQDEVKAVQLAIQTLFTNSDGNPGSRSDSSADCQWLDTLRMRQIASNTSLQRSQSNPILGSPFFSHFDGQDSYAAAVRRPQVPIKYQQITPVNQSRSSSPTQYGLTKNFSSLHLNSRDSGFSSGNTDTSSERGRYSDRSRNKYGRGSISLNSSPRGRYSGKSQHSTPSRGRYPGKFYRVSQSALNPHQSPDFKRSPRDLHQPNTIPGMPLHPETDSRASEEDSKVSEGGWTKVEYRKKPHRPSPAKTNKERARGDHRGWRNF
T14 sequence (P42336 whole entry E545K): as the sequence (P42336 whole entry H1047Y) above, with E545K, Y1047H counted along it

Compound: COc1nc2ccc(NCC3CCN(C)CC3)nn2c1C(=O)Nc1cccc(OC(F)(F)F)c1 [Cpd 1]
- sphere-forming capacity (PDAC4 cultures): decreased sphere forming capacity
- sphere-forming capacity (PDAC2 cultures): decreased sphere forming capacity

Compound: CN1CCC(CNc2ccc3ncc(C(=O)Nc4cccc(OC(F)(F)F)c4)n3n2)CC1 [Cpd 2]
- remaining binding at 1 µM (SLK): 79%
- remaining binding at 1 µM (BRSK2): 100%
- remaining binding at 1 µM (MEK4): 100%
- remaining binding at 1 µM (PIK3CA(H1047Y)): 96%
- remaining binding at 1 µM (BTK): 100%
- remaining binding at 1 µM (ROCK2): 94%
- remaining binding at 1 µM (RSK3(KD1-N-t.)): 93%
- remaining binding at 1 µM (FLT3(K663Q)): 92%
- remaining binding at 1 µM (PCTK1): 100%
- remaining binding at 1 µM (MAP4K3): 95%
- remaining binding at 1 µM (PIM3): 18%
- remaining binding at 1 µM (MAPKAPK5): 100%
- remaining binding at 1 µM (BLK): 100%
- remaining binding at 1 µM (GRK2): 79%
- remaining binding at 1 µM (PIK3CA(E545K)): 87%
- remaining binding at 1 µM (ACVR1): 99%
- remaining binding at 1 µM (PAK2): 94%
- levels in plasma (Pharmacokinetic study; after intravenous administration): low levels in plasma
- clearance (Pharmacokinetic study; intravenous administration): > 100 % hepatic blood flow
- remaining binding at 1 µM (CDC2L2): 99%
- remaining binding at 1 µM (ZAP70): 95%
- remaining binding at 1 µM (p38-gamma): 91%
- remaining binding at 1 µM (PRKCH): 99%
- remaining binding at 1 µM (AXL): 65%
- remaining binding at 1 µM (NEK11): 79%
- remaining binding at 1 µM (PYK2): 95%
- remaining binding at 1 µM (PDGFRA): 81%
- remaining binding at 1 µM (ZAK): 96%
- remaining binding at 1 µM (DYRK1B): 92%
